The text below walks through data of ChEMBL document CHEMBL5143685, “Valorisation of the diterpene podocarpic acid - Antibiotic and antibiotic enhancing activities of polyamine conjugates” (Bioorg Med Chem, 2022).

Data set [1] concerns Klebsiella pneumoniae. The data set is described as follows: Antibacterial activity against Klebsiella pneumoniae ATCC 700603 assessed as inhibition of bacterial growth measured after 18 hrs by resazurin dye based analysis. It counts as functional. Background: The colour change of resazurin is a common sign of viable cells or microbes.
In data set [2] the test system is Escherichia coli. The data set is described as follows: Antibacterial activity against Escherichia coli ATCC 25922 assessed as inhibition of bacterial growth measured after 18 hrs by resazurin dye based analysis. In kind it is functional.
Data set [3] has as its system Pseudomonas aeruginosa. The data set is described as follows: Antibacterial activity against Pseudomonas aeruginosa ATCC 27853 assessed as inhibition of bacterial growth measured after 18 hrs by resazurin dye based analysis. In kind it is functional.
Data set [4] concerns Staphylococcus aureus. The data set is described as follows: Antibacterial activity against methicillin-resistant Staphylococcus aureus ATCC 43300 assessed as inhibition of bacterial growth measured after 18 hrs by resazurin dye based analysis. In kind it is functional.
Data set [5] concerns Acinetobacter baumannii. The data set is described as follows: Antibacterial activity against Acinetobacter baumannii ATCC 19606 assessed as inhibition of bacterial growth measured after 18 hrs by resazurin dye based analysis. In kind it is functional.
Data set [6] relates to Candida albicans. The data set is described as follows: Antifungal activity against Candida albicans ATCC 90028 assessed as fungal growth inhibition incubated for 36 hrs by resazurin dye based analysis. In kind it is functional.
Data set [7] relates to Cryptococcus neoformans. The data set is described as follows: Antifungal activity against Cryptococcus neoformans ATCC 208821 assessed as fungal growth inhibition incubated for 36 hrs by resazurin dye based analysis. It counts as functional.
A short description of data set [8]: Cytotoxicity against HEK293 cells assessed as cell growth inhibition measured after 20 hrs by resazurin dye based assay. To be noted: human. It counts as toxicity.
Data set [9] concerns Escherichia coli. The data set is described as follows: Antibiotic adjuvant activity against Escherichia coli ATCC 25922 assessed as erythromycin MIC measured after 18 hrs in presence of erythromycin. In kind it is functional.

Broadly, the MIC is the lowest concentration found to suppress growth. As a reminder, the IC50 is the concentration that gives 50% inhibition.

For `C[C@]1(C(=O)NCCCNCCCCCCCN)CCC[C@]2(C)c3cc(OC(=O)NCCCNCCCCCCCN)ccc3CC[C@@H]12.O=C(O)C(F)(F)F.O=C(O)C(F)(F)F.O=C(O)C(F)(F)F.O=C(O)C(F)(F)F`, the MIC in data set [1] was over 29.7 µM; in [2], over 29.7 µM; in [3], over 29.7 µM; in data set [4], over 28.7 µM; in data set [5] it was over 29.7 µM; in [6], over 29.7 µM. In addition, the MIC in [7] was over 29.7 µM; in data set [9], 50 µM. Moreover, the IC50 at 20 h in data set [8] is over 28.7 µM.
`C[C@]1(C(=O)O)CCC[C@]2(C)c3cc(OC(=O)CCCNCCCCCCCNCCCNC(=O)Oc4ccc5c(c4)[C@@]4(C)CCC[C@](C)(C(=O)O)[C@@H]4CC5)ccc3CC[C@@H]12.O=C(O)C(F)(F)F.O=C(O)C(F)(F)F`: the MIC was over 29.8 µM in data set [1]; over 29.8 µM in data set [2]; over 29.8 µM in data set [3]; over 29.8 µM in [4]; over 29.8 µM in data set [5]; 29.8 µM in data set [6]. In addition, the MIC in data set [7] amounted to 7.45 µM. Also, the IC50 at 20 h in [8] is over 29.8 µM.
With `C[C@]1(C(=O)O)CCC[C@]2(C)c3cc(OC(=O)NCCCNCCCCCCCCCCCCN)ccc3CC[C@@H]12.O=C(O)C(F)(F)F.O=C(O)C(F)(F)F`, the MIC in data set [1] was over 32.8 µM; in data set [2], over 32.8 µM; in [3], over 32.8 µM; in data set [4], over 32.8 µM; in [5] it was over 32.8 µM; in data set [6], 32.8 µM. In addition, the minimal inhibitory concentration (MIC) in data set [7] was over 32.8 µM. In addition, the IC50 at 20 h in data set [8] was over 32.8 µM.
Take `CCCCCNC(=O)[C@@]1(C)CCC[C@]2(C)c3cc(OC(=O)CCCNCCCCNCCCNC(=O)Oc4ccc5c(c4)[C@@]4(C)CCC[C@](C)(C(=O)NCCCCC)[C@@H]4CC5)ccc3CC[C@@H]12.O=C(O)C(F)(F)F.O=C(O)C(F)(F)F`: the MIC in [1] was over 27.4 µM; in [2], over 27.4 µM; in [3], over 27.4 µM; in data set [4], at most 0.21 µM; in [5], over 27.4 µM; in data set [6] it was 13.7 µM. In data set [7], the MIC was over 27.4 µM. Also, the IC50 at 20 h in [8] is over 27.4 µM.
Regarding `COC(=O)[C@@]1(C)CCC[C@]2(C)c3cc(OC(=O)CCCNCCCCNCCCNC(=O)Oc4ccc5c(c4)[C@@]4(C)CCC[C@](C)(C(=O)OC)[C@@H]4CC5)ccc3CC[C@@H]12.O=C(O)C(F)(F)F.O=C(O)C(F)(F)F`, the MIC in [1] is over 30.2 µM; in data set [2], 30.2 µM; in data set [3], over 30.2 µM; in [4] it was 1.89 µM; in [5], 30.2 µM; in [6], 15.1 µM. In addition, in data set [7], the MIC came to 1.89 µM. For the same molecule, the IC50 at 20 h in data set [8] amounted to 16.4 µM.
As for `C[C@]1(C(=O)NCCCNCCCCCCCCNCCCNC(=O)[C@@]2(C)CCC[C@]3(C)c4cc(O)ccc4CC[C@@H]23)CCC[C@]2(C)c3cc(O)ccc3CC[C@@H]12.O=C(O)C(F)(F)F.O=C(O)C(F)(F)F`, the MIC in data set [1] was over 32 µM; in data set [2], 32 µM; in data set [3], over 32 µM; in data set [4] it was 8 µM; in [5], 32 µM; in data set [6], 32 µM. Further, in [7], the MIC worked out at 32 µM. Further, the IC50 at 20 h in data set [8] came to 18.1 µM.
In the case of `C[C@]1(C(=O)O)CCC[C@]2(C)c3cc(OC(=O)CCCNCCCCCCCCCCCCNCCCNC(=O)Oc4ccc5c(c4)[C@@]4(C)CCC[C@](C)(C(=O)O)[C@@H]4CC5)ccc3CC[C@@H]12.O=C(O)C(F)(F)F.O=C(O)C(F)(F)F`, the minimum inhibitory concentration (MIC) in data set [1] was over 28 µM; in data set [2], over 28 µM; in [3] it was over 28 µM; in data set [4], 14 µM; in data set [5], over 28 µM; in data set [6], over 28 µM. For the same molecule, the MIC in data set [7] was found to be 3.5 µM. Besides, the IC50 at 20 h in data set [8] was over 28 µM.
In the case of `CCCCCNC(=O)[C@@]1(C)CCC[C@]2(C)c3cc(OC(=O)CCCNCCCCCCCCNCCCNC(=O)Oc4ccc5c(c4)[C@@]4(C)CCC[C@](C)(C(=O)NCCCCC)[C@@H]4CC5)ccc3CC[C@@H]12.O=C(O)C(F)(F)F.O=C(O)C(F)(F)F`, the MIC in [1] is over 26.1 µM; in [2], over 26.1 µM; in data set [3] it was over 26.1 µM; in [4], 1.63 µM; in [5], over 26.1 µM; in data set [6], at most 0.2 µM. Further, the MIC in data set [7] is at most 0.2 µM. Moreover, the IC50 at 20 h in [8] is over 26.1 µM.
In the case of `C[C@]1(C(=O)NCCCNCCCCCCCNCCCNC(=O)[C@@]2(C)CCC[C@]3(C)c4cc(O)ccc4CC[C@@H]23)CCC[C@]2(C)c3cc(O)ccc3CC[C@@H]12.O=C(O)C(F)(F)F.O=C(O)C(F)(F)F`, the MIC is over 32.5 µM in data set [1]; 32.5 µM in [2]; over 32.5 µM in [3]; 32.5 µM in [4]; over 32.5 µM in data set [5]; 32.5 µM in [6]. In addition, the MIC in data set [7] amounted to 32.5 µM. For the same molecule, the IC50 at 20 h in data set [8] amounted to 19.1 µM.
As for `C[C@]1(C(=O)O)CCC[C@]2(C)c3cc(OC(=O)CCCNCCCCCCCCNCCCNC(=O)Oc4ccc5c(c4)[C@@]4(C)CCC[C@](C)(C(=O)O)[C@@H]4CC5)ccc3CC[C@@H]12.O=C(O)C(F)(F)F.O=C(O)C(F)(F)F`, the MIC in data set [1] is over 29.4 µM; in data set [2] it was over 29.4 µM; in data set [3], over 29.4 µM; in data set [4] it was over 29.4 µM; in data set [5] it was over 29.4 µM; in [6], 14.7 µM. In [7], the MIC was at most 0.23 µM. Also, the IC50 at 20 h in data set [8] is over 29.4 µM.
`CCCCCNC(=O)[C@@]1(C)CCC[C@]2(C)c3cc(OC(=O)CCCNCCCCCCCCCCCCNCCCNC(=O)Oc4ccc5c(c4)[C@@]4(C)CCC[C@](C)(C(=O)NCCCCC)[C@@H]4CC5)ccc3CC[C@@H]12.O=C(O)C(F)(F)F.O=C(O)C(F)(F)F`: the MIC in data set [1] is over 25 µM; in data set [2], over 25 µM; in data set [3] it was over 25 µM; in data set [4] it was 1.56 µM; in data set [5], over 25 µM; in data set [6], at most 0.19 µM. Further, the minimum inhibitory concentration (MIC) in data set [7] is at most 0.19 µM. Further, the IC50 at 20 h in data set [8] is over 25 µM.
As to `C[C@]1(C(=O)NCCCNCCCCCCCCN)CCC[C@]2(C)c3cc(OC(=O)NCCCNCCCCCCCCN)ccc3CC[C@@H]12.O=C(O)C(F)(F)F.O=C(O)C(F)(F)F.O=C(O)C(F)(F)F.O=C(O)C(F)(F)F`, the MIC in data set [1], in [2], in data set [3], in data set [4], in data set [5] and in data set [6] was over 28 µM in each case. Further, the MIC in data set [7] was over 28 µM. For the same molecule, in data set [8], the IC50 at 20 h is over 28 µM.
In the case of `C[C@]1(C(=O)O)CCC[C@]2(C)c3cc(OC(=O)NCCCNCCCCCCCCN)ccc3CC[C@@H]12.O=C(O)C(F)(F)F.O=C(O)C(F)(F)F`, the MIC in data set [1], in data set [2], in data set [3], in data set [4], in [5] and in data set [6] was over 43.8 µM each time. Also, in data set [7], the MIC was over 43.8 µM. The IC50 at 20 h in [8] was over 43.8 µM.
`COC(=O)[C@@]1(C)CCC[C@]2(C)c3cc(OC(=O)CCCNCCCCCCCCCCNCCCNC(=O)Oc4ccc5c(c4)[C@@]4(C)CCC[C@](C)(C(=O)OC)[C@@H]4CC5)ccc3CC[C@@H]12.O=C(O)C(F)(F)F.O=C(O)C(F)(F)F`: the MIC in data set [1] was over 28 µM; in data set [2], over 28 µM; in data set [3], over 28 µM; in data set [4], 3.5 µM; in [5], over 28 µM; in data set [6], at most 0.22 µM. Besides, the MIC in data set [7] is at most 0.22 µM. Further, the IC50 at 20 h in [8] was 1.3 µM.
For the molecule `C[C@]1(C(=O)NCCCNCCCCCCN)CCC[C@]2(C)c3cc(O)ccc3CC[C@@H]12.O=C(O)C(F)(F)F.O=C(O)C(F)(F)F`, the MIC in data set [1], in data set [2], in [3], in [4], in [5] and in data set [6] was over 48.6 µM throughout. In data set [7], the MIC is over 48.6 µM. For the same molecule, in data set [8], the IC50 at 20 h was over 48.6 µM.
For `C[C@]1(C(=O)NCCCNCCCCCCNCCCNC(=O)[C@@]2(C)CCC[C@]3(C)c4cc(O)ccc4CC[C@@H]23)CCC[C@]2(C)c3cc(O)ccc3CC[C@@H]12.O=C(O)C(F)(F)F.O=C(O)C(F)(F)F`, the MIC in [1] is over 32.9 µM; in [2], 32.9 µM; in data set [3], over 32.9 µM; in data set [4], 32.9 µM; in data set [5], over 32.9 µM; in [6], 32.9 µM. For the same molecule, the MIC in data set [7] is 32.9 µM. Also, the IC50 at 20 h in [8] turned out to be 28.6 µM.
With `COC(=O)[C@@]1(C)CCC[C@]2(C)c3cc(OC(=O)CCCNCCCCCCNCCCNC(=O)Oc4ccc5c(c4)[C@@]4(C)CCC[C@](C)(C(=O)OC)[C@@H]4CC5)ccc3CC[C@@H]12.O=C(O)C(F)(F)F.O=C(O)C(F)(F)F`, the MIC in data set [1] is over 29.4 µM; in data set [2], 14.7 µM; in [3], over 29.4 µM; in data set [4], at most 0.23 µM; in data set [5] it was over 29.4 µM; in [6] it was at most 0.23 µM. Further, the MIC in [7] is 0.46 µM. Also, in data set [8], the IC50 at 20 h is 4.68 µM.
In the case of `C[C@@]12CCC[C@](C)(C(=O)O)[C@H]1CCc1ccc(OC(=O)CCCNCCCCNCCCNC(=O)Oc3ccc4c(c3)[C@@]3(C)CCC[C@](C)(C(=O)O)[C@@H]3CC4)cc12.O=C(O)C(F)(F)F.O=C(O)C(F)(F)F`, the MIC in [1] was over 31 µM; in data set [2], over 31 µM; in data set [3] it was over 31 µM; in data set [4], over 31 µM; in data set [5], over 31 µM; in data set [6], 7.76 µM. In addition, in data set [7], the MIC was determined as 7.76 µM. Also, the IC50 at 20 h in [8] was over 31 µM.
